Reference: patent publication US9308194B2, “Indanyloxyphenylcyclopropanecarboxylic acids” (Boehringer Ingelheim International GmbH, priority 2013, dated 2016)
pEC50: −log10 of the molar value.

What follows are compounds tested against human GPR40 receptor (Homo sapiens, UniProt O14842) (assay: IP1 accumulation measurements using the IPOne assay system in 1321N1 cells stably expressing human GPR40 receptor). Conditions: 1321N1 cells expressing human GPR40, 1 hour stimulation at 37° C., Table 2.
Assay type: cell-based
Method: (§1) IP1 is assayed according to the Manufacturer's description (Cisbio Bioassays, France). In brief, the assay is started by substitution of the culture medium by stimulation buffer (Hepes 10 mM, CaCl2 1 mM, MgCl2 0.5 mM, KCl 4.2 mM, NaCl 146 mM and glucose 5.5 mM, pH 7.4) without LiCl or with […]. Cells are stimulated for 1 hour at 37° C., 5 or 10% CO2 by addition of the compounds that are diluted in stimulation buffer containing LiCl yielding a final LiCl concentration of 50 mM. Assays are stopped by adding HTRF-conjugates (IP1-d2 and Anti-IP1 cryptate Tb) and lysis buffer, provided by the manufacturer. After an incubation time of 1 hour at room temperature plates are measured using an EnVision™, Perkin Elmer. The obtained fluorescence ratios at […] are then used to calculate the pEC50 values using GraphPad Prism 5 (Graphpad Software Inc, USA) or Assay Explorer 3.3 Software (Accelrys, Inc.) by interpolation using an IP1 reference curve and subsequent sigmoidal curve fitting allowing for a variable hill slope.
as §1, with “IP1 accumulation measurements using the IPOne assay system—1321N1 cells stably expressing human GPR40 receptor (Euroscreen, Belgium) are seeded 24 h before the assay in black clear-bottom collagen-coated or white 384-well plates in culture medium containing 10% FCS, 1% Na-Pyruvate and 400 μg/mL G418. IP1 is” for “IP1 is”

Chain of human GPR40 receptor (O14842 whole entry): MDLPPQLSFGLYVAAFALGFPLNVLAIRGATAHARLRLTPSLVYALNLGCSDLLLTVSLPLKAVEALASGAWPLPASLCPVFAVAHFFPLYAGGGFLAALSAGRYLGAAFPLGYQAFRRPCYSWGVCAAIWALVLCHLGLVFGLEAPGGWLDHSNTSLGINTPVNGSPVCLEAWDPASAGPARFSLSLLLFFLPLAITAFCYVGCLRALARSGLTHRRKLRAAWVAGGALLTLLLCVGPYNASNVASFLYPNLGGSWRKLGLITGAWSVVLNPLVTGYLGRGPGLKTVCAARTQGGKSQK

SMILES | pEC50
O=C(O)[C@H]1C[C@@H]1c1ccc(O[C@@H]2CCc3c(Oc4ccc(OCc5ccccc5)cc4)ccc(F)c32)cc1 [Example 1] | 8.22
O=C(O)[C@H]1C[C@@H]1c1ccc(O[C@@H]2CCc3c(Oc4ccc(O)cc4)ccc(F)c32)cc1 [Example 2] | 8.22
O=C(O)[C@H]1C[C@@H]1c1ccc(O[C@@H]2CCc3c(Oc4ccc(OCc5ccccc5)c(F)c4)ccc(F)c32)cc1 [Example 3] | 8.30
CC(C)(O)CCOc1ccc(Oc2ccc(F)c3c2CC[C@H]3Oc2ccc([C@H]3C[C@@H]3C(=O)O)cc2)cc1 [Example 4] | 8.30
O=C(O)[C@H]1C[C@@H]1c1ccc(O[C@@H]2CCc3c(Oc4ccc(OCC5(O)CCOCC5)cc4)ccc(F)c32)cc1 [Example 5] | 8.15
O=C(O)[C@H]1C[C@@H]1c1ccc(O[C@@H]2CCc3c(Oc4ccc(OC5CCOCC5)cc4)ccc(F)c32)cc1 [Example 6] | 8.70
CS(=O)(=O)CCCOc1ccc(Oc2ccc(F)c3c2CC[C@H]3Oc2ccc([C@H]3C[C@@H]3C(=O)O)cc2)cc1 [Example 7] | 8.40
COCCOc1ccc(Oc2ccc(F)c3c2CC[C@H]3Oc2ccc([C@H]3C[C@@H]3C(=O)O)cc2)cc1 [Example 8] | 8.30
CC(C)(O)COc1ccc(Oc2ccc(F)c3c2CC[C@H]3Oc2ccc([C@H]3C[C@@H]3C(=O)O)cc2)cc1 [Example 9] | 8.30
O=C(O)[C@H]1C[C@@H]1c1ccc(O[C@@H]2CCc3c(Oc4ccc(OCCO)cc4)ccc(F)c32)cc1 [Example 10] | 8.15
CC(C)(O)CCOc1ccc(Oc2ccc(F)c3c2CC[C@H]3Oc2ccc([C@H]3C[C@@H]3C(=O)O)cc2)cc1F [Example 11] | 8.52
O=C(O)[C@H]1C[C@@H]1c1ccc(O[C@@H]2CCc3c(Oc4ccc(OC5CCOCC5)c(F)c4)ccc(F)c32)cc1 [Example 12] | 8.40
COCCOc1ccc(Oc2ccc(F)c3c2CC[C@H]3Oc2ccc([C@H]3C[C@@H]3C(=O)O)cc2)cc1F [Example 13] | 8.10
O=C(O)[C@H]1C[C@@H]1c1ccc(O[C@@H]2CCc3c(Oc4ccc(OCCN5CCOCC5)cc4)ccc(F)c32)cc1 [Example 14] | 8.52
CS(=O)(=O)CCCOc1ccc(Oc2ccc(F)c3c2CC[C@H]3Oc2ccc([C@H]3C[C@@H]3C(=O)O)cc2)cc1F [Example 15] | 8.10
O=C(O)c1ccc(Oc2ccc(F)c3c2CC[C@H]3Oc2ccc([C@H]3C[C@@H]3C(=O)O)cc2)cc1 [Example 16] | 7.04
CNC(=O)c1ccc(Oc2ccc(F)c3c2CC[C@H]3Oc2ccc([C@H]3C[C@@H]3C(=O)O)cc2)cc1 [Example 17] | 8.05
O=C(NCC1CC1)c1ccc(Oc2ccc(F)c3c2CC[C@H]3Oc2ccc([C@H]3C[C@@H]3C(=O)O)cc2)cc1 [Example 18] | 8.22
CN(CCO)C(=O)c1ccc(Oc2ccc(F)c3c2CC[C@H]3Oc2ccc([C@H]3C[C@@H]3C(=O)O)cc2)cc1 [Example 19] | 7.32
CN(C)C(=O)c1ccc(Oc2ccc(F)c3c2CC[C@H]3Oc2ccc([C@H]3C[C@@H]3C(=O)O)cc2)cc1 [Example 20] | 7.96
O=C(NC1CCOCC1)c1ccc(Oc2ccc(F)c3c2CC[C@H]3Oc2ccc([C@H]3C[C@@H]3C(=O)O)cc2)cc1 [Example 21] | 8.52
O=C(O)[C@H]1C[C@@H]1c1ccc(O[C@@H]2CCc3c(Oc4ccc(C(=O)N5CCOCC5)cc4)ccc(F)c32)cc1 [Example 22] | 7.57
CCNC(=O)c1ccc(Oc2ccc(F)c3c2CC[C@H]3Oc2ccc([C@H]3C[C@@H]3C(=O)O)cc2)cc1 [Example 23] | 7.92

SMILES | pEC50
N#Cc1ccc(Oc2ccc(F)c3c2CC[C@H]3Oc2ccc([C@H]3C[C@@H]3C(=O)O)cc2)cc1 [Example 24] | 8.70
Cc1cc(C#N)ccc1Oc1ccc(F)c2c1CC[C@H]2Oc1ccc([C@H]2C[C@@H]2C(=O)O)cc1 [Example 25] | 8.70
N#Cc1ccc(Oc2ccc(F)c3c2CC[C@H]3Oc2ccc([C@H]3C[C@@H]3C(=O)O)cc2)c(F)c1 [Example 26] | 7.72
COc1cc(Oc2ccc(F)c3c2CC[C@H]3Oc2ccc([C@H]3C[C@@H]3C(=O)O)cc2)ccc1C#N [Example 27] | 8.70
N#Cc1ccc(Oc2c(F)cc(F)c3c2CC[C@H]3Oc2ccc([C@H]3C[C@@H]3C(=O)O)cc2)cc1 [Example 28] | 9.00
Cn1nnc(-c2ccc(Oc3ccc(F)c4c3CC[C@H]4Oc3ccc([C@H]4C[C@@H]4C(=O)O)cc3)cc2)n1 [Example 29] | 8.52
CC(C)c1ccn(-c2ccc(Oc3ccc(F)c4c3CC[C@H]4Oc3ccc([C@H]4C[C@@H]4C(=O)O)cc3)cc2)n1 [Example 30] | 8.10
Cc1cc(Oc2ccc(F)c3c2CC[C@H]3Oc2ccc([C@H]3C[C@@H]3C(=O)O)cc2)cc(C)c1OCCC(C)(C)O [Example 31] | 8.05
Cc1noc(-c2ccc(Oc3ccc(F)c4c3CC[C@H]4Oc3ccc([C@H]4C[C@@H]4C(=O)O)cc3)cc2)n1 [Example 32] | 8.40
Cc1nc(-c2ccc(Oc3ccc(F)c4c3CC[C@H]4Oc3ccc([C@H]4C[C@@H]4C(=O)O)cc3)cc2)nn1C [Example 33] | 8.30
CC(C)(O)CNC(=O)c1ccc(Oc2ccc(F)c3c2CC[C@H]3Oc2ccc([C@H]3C[C@@H]3C(=O)O)cc2)cc1 [Example 34] | 7.80
Cc1nc(-c2ccc(Oc3ccc(F)c4c3CC[C@H]4Oc3ccc([C@H]4C[C@@H]4C(=O)O)cc3)cc2)no1 [Example 35] | 8.52
Cn1ncc2ccc(Oc3ccc(F)c4c3CC[C@H]4Oc3ccc([C@H]4C[C@@H]4C(=O)O)cc3)cc21 [Example 36] | 8.70
Cc1nc2ccc(Oc3ccc(F)c4c3CC[C@H]4Oc3ccc([C@H]4C[C@@H]4C(=O)O)cc3)cc2s1 [Example 37] | 8.70
CS(=O)(=O)c1ccc(Oc2ccc(F)c3c2CC[C@H]3Oc2ccc([C@H]3C[C@@H]3C(=O)O)cc2)cc1 [Example 38] | 7.57
Cc1ccc2cc(Oc3ccc(F)c4c3CC[C@H]4Oc3ccc([C@H]4C[C@@H]4C(=O)O)cc3)ccc2n1 [Example 39] | 8.22
N#Cc1ccc2c(c1Cc1ccc(Cl)nc1)CC[C@H]2Oc1ccc([C@H]2C[C@@H]2C(=O)O)cc1 [Example 40, (1S,2S)-2-{4-[(R)-4-(6-Chloro-pyridin-3-ylmethyl)-5-cyano-indan-1-yloxy]-phenyl}-cyclopropanecarboxylic acid] | 7.35
Cc1cc(C#N)cc(C)c1S(=O)(=O)c1cccc2c1CC[C@H]2Oc1ccc([C@H]2C[C@@H]2C(=O)O)cc1 [Example 41] | 7.92
Cc1cccc(C)c1S(=O)(=O)c1cccc2c1CC[C@H]2Oc1ccc([C@H]2C[C@@H]2C(=O)O)cc1 [Example 42] | 8.40
O=C(O)C1CC1c1ccc(O[C@@H]2CCc3c2cccc3S(=O)(=O)c2ccccc2)cc1 (stereo partly shown) [Example 43] | 7.43
O=C(O)C1CC1c1ccc(O[C@@H]2CCc3c2cccc3[S+]([O-])c2ccccc2)cc1 (stereo partly shown) [Example 44] | 6.71
O=C(O)[C@H]1C[C@@H]1c1ccc(O[C@@H]2CCc3c(Oc4ccccc4)ccc(F)c32)cc1 [Example 45, (1S,2S)-2-[4-((R)-7-Fluoro-4-phenoxy-indan-1-yloxy)-phenyl]-cyclopropanecarboxylic acid] | 8.70
COc1ccc(Cc2c(C#N)ccc3c2CC[C@H]3Oc2ccc([C@H]3C[C@@H]3C(=O)O)cc2)cn1 [Example 46, (1S,2S)-2-{4-[(R)-5-Cyano-4-(6-methoxy-pyridin-3-ylmethyl)-indan-1-yloxy]-phenyl}-cyclopropanecarboxylic acid] | 8.10
